In US10280159B2 (AbbVie Deutschland GmbH & Co. KG, priority 2015, dated 2019) one finds EC50 data, which are given here for 12 compounds.

A word on the pEC50: it is the negative decadic logarithm of the EC50, by convention in mol/L.

pEC50: −log10 of the molar value.

Common to all, as to type: cell-based
One experiment has as its target T1, human S1PR4 (Homo sapiens, UniProt O95977).
T1 construct: host or cells: CHO-K1
T1 sequence (O95977 1-384): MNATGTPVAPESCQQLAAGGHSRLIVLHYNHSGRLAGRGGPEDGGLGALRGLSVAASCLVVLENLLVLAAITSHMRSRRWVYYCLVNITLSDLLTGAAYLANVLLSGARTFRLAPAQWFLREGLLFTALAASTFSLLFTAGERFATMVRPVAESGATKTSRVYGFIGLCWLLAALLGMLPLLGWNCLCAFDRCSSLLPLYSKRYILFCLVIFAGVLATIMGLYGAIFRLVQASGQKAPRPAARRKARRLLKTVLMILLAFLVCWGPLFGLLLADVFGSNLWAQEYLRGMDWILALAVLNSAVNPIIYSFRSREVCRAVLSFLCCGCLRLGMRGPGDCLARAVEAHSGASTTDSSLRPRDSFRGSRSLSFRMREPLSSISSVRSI
The experiment is described as follows: Intracellular Ca2+ release (FLIPR) agonist potency, S1P4. The settings on record: recombinant CHO-K1 cells expressing human S1PR4, aequorin, Gq/i5; Calcium 5 FLIPR; read-out: S1P4 EC50. In outline: (§1)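 Agonist potency was determined from intracellular Ca2+ release in engineered CHO-K1 cells (human receptor, aequorin, Gq/i5) using FLIPR Tetra, with phospho-fingolimod as reference agonist for normalization.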

The target in a further experiment is T2, human S1PR5 (Homo sapiens, UniProt Q9H228).
T2 construct: host or cells: CHO-K1
The experiment is described as follows: Intracellular Ca2+ release (FLIPR) agonist potency, S1P5. The settings on record: recombinant CHO-K1 cells expressing human S1PR5, aequorin, Gq/i5; Calcium 5 FLIPR; read-out: S1P5 EC50 range. In outline: as §1

A further experiment deals with T3, human S1PR3 (Homo sapiens, UniProt Q99500).
T3 construct: host or cells: CHO-K1
The experiment is described as follows: Intracellular Ca2+ release (FLIPR) agonist potency, S1P3. To be noted: recombinant CHO-K1 cells expressing human S1PR3, aequorin, Gq/i5; Calcium 5 FLIPR; read-out: S1P3 EC50. Here is the method:
Agonistic activity was measured using the method described below.
Intracellular Ca^2+ Release
Agonist potency and intrinsic activity was assessed by measurement of intracellular Ca^2+ release. Recombinant CHO-K1 cells (Euroscreen, Brussels, Belgium) expressing human S1PR5, S1PR1, S1PR3 or S1PR4 receptors, aequorin, and GTP binding protein Gq/i5 were cultured using a medium containing nutrient mixture F-12 Ham (Sigma-Aldrich) with 10% FBS, and 100 μg/mL gentamicin and equilibrated at 5% CO2.
Phospho-fingolimod was used as positive control. Antagonists were pre-incubated for 10 min with cells before addition of the agonist (phospho-fingolimod at EC80). Measurements were performed using a fluorometric imaging plate reader FLIPR®tetra (Molecular Devices). Agonist at the human S1P receptors were characterized by deducing EC50 (potency) values from a nonlinear fit to the measured fluorescence raw data after normalization to the reference agonist (phospho-fingolimod) curve.

The target of another experiment is T4, human S1PR1 (Homo sapiens, UniProt P21453).
T4 construct: host or cells: CHO-K1
In words: Intracellular Ca2+ release (FLIPR) agonist potency, S1P1. The settings on record: recombinant CHO-K1 cells expressing human S1PR1, aequorin, Gq/i5; Calcium 5 FLIPR; read-out: S1P1 EC50. The method, boiled down: as §1

T4 sequence (P21453 whole entry): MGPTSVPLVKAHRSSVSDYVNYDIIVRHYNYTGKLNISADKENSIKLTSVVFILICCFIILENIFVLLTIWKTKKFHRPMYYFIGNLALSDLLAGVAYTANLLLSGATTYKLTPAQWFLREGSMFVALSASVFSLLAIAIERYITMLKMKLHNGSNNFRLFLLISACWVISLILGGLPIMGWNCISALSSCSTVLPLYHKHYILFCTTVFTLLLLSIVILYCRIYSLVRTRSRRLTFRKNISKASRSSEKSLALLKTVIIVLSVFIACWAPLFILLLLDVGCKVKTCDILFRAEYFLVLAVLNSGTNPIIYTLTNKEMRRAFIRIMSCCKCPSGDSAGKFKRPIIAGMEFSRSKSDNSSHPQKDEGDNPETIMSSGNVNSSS
T2 sequence (Q9H228 whole entry): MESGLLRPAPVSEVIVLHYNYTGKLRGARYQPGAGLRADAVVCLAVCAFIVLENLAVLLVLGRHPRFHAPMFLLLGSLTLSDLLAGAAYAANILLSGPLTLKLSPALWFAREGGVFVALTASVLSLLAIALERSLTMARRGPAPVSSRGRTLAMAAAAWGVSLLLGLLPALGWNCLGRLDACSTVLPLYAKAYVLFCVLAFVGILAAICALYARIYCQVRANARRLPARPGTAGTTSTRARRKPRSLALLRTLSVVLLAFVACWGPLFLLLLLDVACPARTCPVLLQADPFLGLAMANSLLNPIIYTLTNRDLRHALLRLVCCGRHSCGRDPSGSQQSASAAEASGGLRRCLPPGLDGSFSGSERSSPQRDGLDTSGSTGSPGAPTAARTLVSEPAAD
T3 sequence (Q99500 whole entry): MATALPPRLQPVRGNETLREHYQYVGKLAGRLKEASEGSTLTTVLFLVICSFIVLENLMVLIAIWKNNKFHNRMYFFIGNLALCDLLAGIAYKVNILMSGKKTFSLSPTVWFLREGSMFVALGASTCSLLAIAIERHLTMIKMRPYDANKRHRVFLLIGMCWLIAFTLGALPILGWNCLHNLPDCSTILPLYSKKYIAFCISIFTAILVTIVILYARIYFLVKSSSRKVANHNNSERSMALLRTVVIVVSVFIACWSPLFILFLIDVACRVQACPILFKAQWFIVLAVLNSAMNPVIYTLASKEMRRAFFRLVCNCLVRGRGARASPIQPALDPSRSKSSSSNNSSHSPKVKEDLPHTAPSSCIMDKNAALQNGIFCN

For the compound `O=C(O)C1CCN(C2COc3cc(OCc4c(Cl)cccc4Cl)ccc3C2)C1` (single isomer, unassigned) [Compound 50, 1-(7-((2,6-dichlorobenzyl)oxy)chroman-3-yl)pyrrolidine-3-carboxylic acid], the pEC50 is less than 6.00 at human S1PR4, greater than 8.00 at human S1PR5, less than 6.00 on human S1PR3 and less than 6.00 on human S1PR1.
For `O=C(O)C1CN(C2CCc3cc(OCc4c(Cl)cccc4Cl)ccc3C2)C1` (stereo not shown) [Compound 4, 1-(6-((2,6-dichlorobenzyl)oxy)-1,2,3,4-tetrahydronaphthalen-2-yl)azetidine-3-carboxylic acid], the pEC50 at human S1PR5 is greater than 8.00; at human S1PR3 it was less than 6.00; at human S1PR1, less than 6.00.
In the case of `CCc1cccc(Cl)c1COc1ccc2c(c1)CCC(NCCC(=O)O)C2` (stereo not shown) [Compound 6, 3-((6-((2-chloro-6-ethylbenzyl)oxy)-1,2,3,4-tetrahydronaphthalen-2-yl)amino)propanoic acid], the pEC50 was greater than 8.00 on human S1PR5, less than 6.00 on human S1PR3 and greater than 6.00 on human S1PR1.
The matching figures for `O=C(O)CCNC1CCc2cc(OCc3ccccc3)ccc2C1` (stereo not shown) [Compound 7, 3-((6-(benzyloxy)-1,2,3,4-tetrahydronaphthalen-2-yl)amino)propanoic acid]: 7.00 to 8.00, less than 6.00 and less than 6.00.
On to `O=C(O)CCNC1CCc2cc(OCc3c(Cl)cccc3Cl)ccc2C1` (stereo not shown) [Compound 9, 3-((6-((2,6-dichlorobenzyl)oxy)-1,2,3,4-tetrahydronaphthalen-2-yl)amino)propanoic acid], for which the negative-log EC50 (pEC50) on human S1PR5 was greater than 8.00; at human S1PR3 it was less than 6.00; on human S1PR1 it was less than 6.00.
`O=C(O)CCNC1CCc2ccc(OCc3c(Cl)cccc3Cl)cc2C1` (stereo not shown) [Compound 10, 3-((7-((2,6-dichlorobenzyl)oxy)-1,2,3,4-tetrahydronaphthalen-2-yl)amino)propanoic acid]: the figures for the negative logarithm of the EC50 (pEC50) at human S1PR5, at human S1PR3 and at human S1PR1 were 5.00 to 6.00, less than 6.00 and less than 6.00, respectively.
Turning to `O=C(O)CCNC1CCc2cc(OCc3ccc(Cl)cc3)ccc2C1` (stereo not shown) [Compound 11, 3-((6-((4-chlorobenzyl)oxy)-1,2,3,4-tetrahydronaphthalen-2-yl)amino) propanoic acid], the negative logarithm of the EC50 (pEC50) at human S1PR5 is 5.00 to 6.00; at human S1PR3, less than 6.00; at human S1PR1 it was less than 6.00.
With `O=C(O)C1CN(C2COc3cc(OCC4CCC4)ccc3C2)C1` (stereo not shown) [Compound 230, 1-[7-(cyclobutylmethoxy)chroman-3-yl]azetidine-3-carboxylic acid], the negative logarithm of the EC50 (pEC50) at human S1PR4 was less than 6.00; at human S1PR5, 5.00 to 6.00; on human S1PR1, less than 6.00.
As to `O=C(O)C1CN(C2COc3cc(OCC4CC4)ccc3C2)C1` (stereo not shown) [Compound 231, 1-[7-(cyclopropylmethoxy)chroman-3-yl]azetidine-3-carboxylic acid], the figures for the pEC50 at human S1PR4, at human S1PR5 and on human S1PR1 were less than 6.00, 5.00 to 6.00 and less than 6.00, respectively.
With `CCc1cccc(Cl)c1COc1ccc2c(c1)OCC(OCC(=O)O)C2` (stereo not shown) [Compound 233, ((7-((2-chloro-6-ethylbenzyl)oxy)chroman-3-yl)oxy)acetic acid], the pEC50 at human S1PR4 is less than 6.00; at human S1PR5, greater than 8.00; on human S1PR1, less than 6.00.
As for `O=C(O)COC1COc2cc(OCc3c(F)ccc(Cl)c3F)ccc2C1` (stereo not shown) [Compound 234, 2-((7-((3-chloro-2,6-difluorobenzyl)oxy)chroman-3-yl)oxy)acetic acid], the negative logarithm of the EC50 (pEC50) at human S1PR4 was less than 6.00; at human S1PR5 it was 5.00 to 6.00; at human S1PR1 it was less than 6.00.
`O=C(O)CNC1COc2cc(-c3ccc(OCc4ccccc4)cc3)ccc2C1` (stereo not shown) [Compound 237, 2-((7-(4-(benzyloxy)phenyl)chroman-3-yl)amino)acetic acid]: the pEC50 was less than 6.00 on human S1PR4, greater than 8.00 on human S1PR5 and less than 6.00 at human S1PR1.
